One may read the AUC(0-t) as exposure summed from dosing to a finite time, without extrapolation to infinity.

Data set [1] in a line: IV and oral rat PK (MAP) studies A, B, C of phosphate prodrugs and parent studies A1, B1, C1. In kind it is in vivo, Sprague-Dawley rats. Particulars: rats; for Vd / concentration at 24 h / AUC(0-t) / Tmax / Cmax / half-life: male, Sprague-Dawley, rat; for Vd: read-out: Vss i.v.; for concentration at 24 h: oral, read-out: Cp @ 24 hr p.o.; for AUC(0-t): AUC 0-24 h (μM * hr). Here is the method:
The rats for oral dosing studies were fasted overnight. […] The dosing solutions of all three prodrugs for both IV and oral administration were prepared in 100% normal saline at 1 mg/mL (dosing solution concentrations were parent compound equivalent). Plasma samples were collected in EDTA vacutainers over 24 hrs, and analyzed by LC/MS/MS for both the prodrugs and parent molecules. Pharmacokinetic analysis was performed on Kinetica™.
Plasma and tissue samples were collected and stored at −20° C. until analysis. […] Rats were fasted overnight in PO studies. […] In the PO studies, rats (n=3) received PO doses of 5 and 100 mg/kg.
Male Sprague-Dawley rats (300-350 g, Hilltop Lab Animals, Inc., Scottdale, Pa.) with cannulas implanted in the jugular vein and/or bile duct were used. The rats were fasted overnight in the PO pharmacokinetic studies. Blood samples of 0.3 ml were collected from the jugular vein in EDTA-containing microtainer tubes (Becton Dickinson, Franklin Lakes, N.J.), and centrifuged to separate plasma.

The nature of data set [2]: Effect of food on oral absorption of IVa in dogs after Iab or IVa capsules. In kind it is in vivo, dog. The note with it: for AUC / Cmax / Tmax / half-life: dog, po, 20 mg/kg. The procedure:
To study the effect of food on the oral absorption of IVa after administration of Iab and IVa, these two compounds were administered in capsules as solid to a group of three dogs in a cross-over fashion under overnight fasting and fed conditions. There was a one-week washout period between each study. Iab was administered at 200 mg per dog (ca 20 mg/kg) of IVa equivalent; IVa was administered in a clinical capsule formulation at 200 mg per dog (ca 20 mg/kg). In the studies where the dogs were fed, the following meal was prepared: 2 slices of bacon, 2 eggs, 2 pieces of toast with butter and jelly, 4 oz. hash browns and 8 oz. of whole milk. After homogenization using a laboratory blender, the meal was equally divided into five portions and kept frozen. Before the study, the meals were thawed and each dog was fed one portion.

The nature of data set [3]: Stability of prodrug in fresh EDTA blood (human). Particulars: Human EDTA blood.
Protocol: The stability of Iab was studied in fresh blood and serum from rat, dog, monkey and human (n=2). The blood was collected in vacutainers containing K2EDTA (Becton Dickinson, Franklin Lakes, N.J.). The serum was collected in vacutainers containing no anticoagulant. Iab was incubated at a starting concentration of approximately 10 μM for 60-90 min at 37° C. Serial samples were taken at the pre-determined times. Aliquots of blood samples (200 μL) were first mixed with 100 μL of water followed by 400 μL of acetonitrile. The serum samples (50 μL) were added into microtainers containing K2EDTA (Becton Dickinson, Franklin Lakes, N.J.) followed by the addition of 100 μL of acetonitrile. The supernatant was analyzed for both Iab and IVa by LC/MS/MS. The stability of Ibb was studied in fresh blood and serum from rat, dog, monkey and human (n=2). The blood was collected in vacutainers containing K2EDTA (Becton Dickinson, Franklin Lakes, N.J.). The serum was collected in vacutainers containing no anticoagulant. Ibb was incubated at a starting concentration of approximately 15 μM for 90 min at 37° C. Serial samples were taken at the pre-determined times. Aliquots of blood samples (200 μL) were first mixed with 100 μL of water followed by 400 μL of acetonitrile. The serum samples (50 μL) were added into microtainers containing K2EDTA (Becton Dickinson, Franklin Lakes, N.J.) followed by the addition of 100 μL of acetonitrile. […] The stability of Icb was studied in fresh blood and serum from rat, dog, monkey and human (n=2). The blood was collected in vacutainers containing K2EDTA (Becton Dickinson, Franklin Lakes, N.J.). The serum was collected in vacutainers containing no anticoagulant. Icb was incubated at a starting concentration of approximately 10 μM for 90 min at 37° C. Serial samples were taken at the pre-determined times. Aliquots of blood samples (200 μL) were first mixed with 100 μL of water followed by 400 μL of acetonitrile. The serum samples (50 μL) were added into microtainers containing K2EDTA (Becton Dickinson, Franklin Lakes, N.J.) followed by the addition of 100 μL of acetonitrile.
Data set [4] in a line: Stability (hydrolysis) of prodrug in fresh serum (rat). The note with it: Rat Serum.
For data set [5], the target named is T1, human placental alkaline phosphatase (ALP) (Homo sapiens, UniProt P05187).
T1 construct: To study the hydrolysis of lab in a purified form of human ALP, Iab was incubated in human placental ALP solutions; host or cells: human placenta (inferred from the name and from 'ALP derived from humans')
The data set is described as follows: Hydrolysis of prodrug in human placental ALP solutions. Type of data set: in vitro ADME. Particulars: human placental ALP solution, 37°C, 120 min, read-out: t1/2 (min) of prodrug disappearance. The procedure: Solid human placental ALP was obtained from Sigma (P-3895, St. Louis, Mo.). […] Solutions of 100 and 10 units/L were obtained by serial dilution. Iab was incubated in the 10, 100 and 1000 units/L solutions (n=2) at 37° C. for 2 hr. The starting concentration of Iab in the incubation was 10 μM. Aliquots of 100 μL samples were taken at pre-determined times and added into K2EDTA microtainers followed by the addition of 200 μL of acetonitrile.
Solid human placental ALP was obtained from Sigma (P-3895, St. Louis, Mo.). […] Solutions of 100 and 10 units/L were obtained by serial dilution. Ibb was incubated in the 10, 100 and 1000 units/L solutions (n=2) at 37° C. for 2 hr. The starting concentration of Ibb in the incubation was 10 μM. Aliquots of 100 μL samples were taken at pre-determined times and added into K2EDTA microtainers followed by the addition of 200 μL of acetonitrile.
Solid human placental ALP was obtained from Sigma (P-3895, St. Louis, Mo.). […] Solutions of 100 and 10 units/L were obtained by serial dilution. Icb was incubated in the 10, 100 and 1000 units/L solutions (n=2) at 37° C. for 2 hr. The starting concentration of Icb in the incubation was 10 μM. Aliquots of 100 μL samples were taken at pre-determined times and added into K2EDTA microtainers followed by the addition of 200 μL of acetonitrile. The supernatant was analyzed for both Icb and IVe by LC/MS/MS.

The test system of another data set is human hepatocytes. Nature of the data set: Hydrolysis of prodrug in hepatocytes (human). Type of data set: in vitro ADME. Here is the method: The in vitro intrinsic clearance of Ibb in hepatocytes (Clint) was calculated as follows: Clint(μL/min/million cells)=Rate/CE where Rate is the rate of metabolism in hepatocytes (pmol/min/million cells), and CE is the concentration of Ibb in the incubation. The in vitro intrinsic clearance of Icb in hepatocytes (Clint) was calculated as follows: Clint(μL/min/million cells)=Rate/CE where Rate is the rate of metabolism in hepatocytes (pmol/min/million cells), and CE is the concentration of Icb in the incubation.

Where [6] appears, read: plasma, 1 mg/kg, historic, parent IV 1 mpk.
[7] abbreviates: plasma, 5 mg/kg, after PO prodrug dosing equivalent to 5 mpk of parent, analyte = label.
Where [8] appears, read: plasma, 5 mg/kg, historic, after PO dosing of parent 5 mpk.
Where [9] appears, read: plasma, po, 5 mg/kg, after PO prodrug dosing equivalent to 5 mpk of parent, analyte = label.
Where [10] appears, read: plasma, po, 5 mg/kg, historic, after PO dosing of parent 5 mpk.
The mark [11] stands for this setting: plasma, po, 5 mg/kg, after PO prodrug dosing equivalent to 5 mpk of parent.
Setting [12] is: plasma, iv, 1 mg/kg, after IV prodrug dosing equivalent to 1 mpk of parent, analyte = label, read-out: T1/2 i.v. (converted).
Setting [13] is: plasma, iv, 1 mg/kg, historic, parent IV 1 mpk, read-out: T1/2 i.v. (converted).
Where [14] appears, read: plasma, po, 5 mg/kg, after PO prodrug dosing equivalent to 5 mpk of parent, read-out: T1/2 p.o. (converted).
Setting [15] is: plasma, po, 5 mg/kg, historic, after PO dosing of parent 5 mpk, read-out: T1/2 p.o. (converted).
[16] abbreviates: parent AUC after prodrug dosing vs after parent dosing.
[17] abbreviates: in vivo, dogs, IVa Clinical Form Capsules, Fasting.
Setting [18] is: in vivo, dogs, IVa Clinical Form Capsules, Fed.
[19] abbreviates: plasma, IVa after Iab dry-filled capsules, Fasting.
The mark [20] stands for this setting: plasma, IVa after Iab dry-filled capsules, Fed.
[21] abbreviates: dogs, IVa Clinical Form Capsules (20 mg/kg).

Counter-ions that a name gives are not always drawn. Like-named read-outs stand apart in the source and are kept apart here.

T1 sequence (P05187 23-506 limits assumed): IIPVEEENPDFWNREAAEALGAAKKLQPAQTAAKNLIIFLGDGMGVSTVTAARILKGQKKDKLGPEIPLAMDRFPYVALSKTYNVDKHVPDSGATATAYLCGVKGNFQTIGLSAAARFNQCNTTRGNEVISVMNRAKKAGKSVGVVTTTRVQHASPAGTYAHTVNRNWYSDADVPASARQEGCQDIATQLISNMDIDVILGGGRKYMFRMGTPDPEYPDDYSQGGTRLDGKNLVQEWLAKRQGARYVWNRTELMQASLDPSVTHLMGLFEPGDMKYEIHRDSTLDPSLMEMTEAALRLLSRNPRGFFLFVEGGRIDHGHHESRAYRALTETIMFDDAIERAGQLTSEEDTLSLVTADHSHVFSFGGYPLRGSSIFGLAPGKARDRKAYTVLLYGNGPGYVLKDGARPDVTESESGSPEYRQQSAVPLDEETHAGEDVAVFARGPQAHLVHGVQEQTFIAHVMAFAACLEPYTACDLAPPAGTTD

On to `COc1cnc(-n2cnc(C)n2)c2[nH]cc(C(=O)C(=O)N3CCN(C(=O)c4ccccc4)CC3)c12` [IVc], for which the Vd in data set [1] (setting [6]) came to 0.4 ± 0.09 L/kg. Further, the concentration at 24 h in data set [1] (setting [7]) came to 84.3 nM; in data set [1] (setting [8]), 61 nM. In addition, the values for the AUC(0-t) in data set [1] (setting [9]) and in data set [1] (setting [10]) were 56 ± 7.5 µM·h and 110 ± 25 µM·h, respectively. The values for the Tmax in data set [1] (setting [11]) and in data set [1] (setting [10]) were 0.8 ± 0.1 h and 4 h, respectively. For the same compound, the Cmax in data set [1] (setting [9]) amounted to 10200 ± 2100 nM; in data set [1] (setting [10]) it was 13400 ± 3600 nM.

Regarding `COc1ncc(OC)c2c(C(=O)C(=O)N3CCN(C(=O)c4ccccc4)CC3)c[nH]c12` [IVa, N-(benzoyl)-N′-[(4,7-dimethoxy-6-azaindol-3-yl)-oxoacetyl]piperazine], the Vd in data set [1] (setting [6]) came out at 1.4 ± 0.4 L/kg. Further, the half-life is 2.8 ± 1.5 h in data set [1] (setting [12]); 4 ± 2.6 h in data set [1] (setting [13]); 3.3 ± 2.2 h in data set [1] (setting [14]); 1.9 ± 0.8 h in data set [1] (setting [15]); 4.2 ± 0.42 h in data set [2] (setting [19]); 3.2 ± 1 h in data set [2] (setting [20]). Besides, the half-life was 5.3 ± 2.7 h in data set [2] (plasma, dogs, IVa Clinical Form Capsules, Fasting) and 8 ± 3.1 h in data set [2] (plasma, dogs, IVa Clinical Form Capsules, Fed). For the same compound, the concentration at 24 h in data set [1] (setting [7]) turned out to be 35.2 nM; in data set [1] (setting [8]), 9.2 nM. Also, the exposure AUC(0-t) in data set [1] (setting [9]) was determined as 5.9 ± 1 µM·h; in data set [1] (setting [10]), 14.9 ± 6.2 µM·h. The Tmax came to 1.7 h in data set [1] (setting [11]); 2 h in data set [1] (setting [10]); 3.3 ± 1.2 h in data set [2] (setting [17]); 4 h in data set [2] (setting [18]); 2 h in data set [2] (setting [19]); 1.5 ± 0.87 h in data set [2] (setting [20]). In addition, the Cmax worked out at 1400 ± 600 nM in data set [1] (setting [9]); 4500 ± 1500 nM in data set [1] (setting [10]); 1200 ± 220 nM in data set [2] (setting [17]); 11000 ± 990 nM in data set [2] (setting [18]); 70000 ± 12000 nM in data set [2] (setting [19]); 130000 ± 102000 nM in data set [2] (setting [20]). Moreover, the “CL i.v.” value in data set [1] (historic, parent IV 1 mpk) was 13 ± 4.6 mL/min/kg. In addition, in data set [1] (setting [16]), the “AUC0 tot ratio after IV administration*” value is listed as 0.534. Moreover, the “AUCtot ratio after PO administration**” value in data set [1] (setting [16]) amounted to 0.39. The AUC in data set [2] (in vivo, dogs, IVa Clinical Form Capsules (20 mg/kg), Fed) was found to be 96 ± 10 µM·h; in data set [2] (plasma, IVa in dogs after Iab dry-filled capsules (20 mg/kg of IVa equivalent), Fasting, n = 3), 414 ± 70 µM·h; in data set [2] (plasma, IVa in dogs after Iab dry-filled capsules (20 mg/kg of IVa equivalent), Fed), 422 ± 57 µM·h; in data set [2] (plasma, dogs, IVa Clinical Form Capsules (20 mg/kg), Fasting, n = 3), 11 ± 1.4 µM·h. Moreover, the “improvement in AUC and Cmax (exposure) in fed vs fasted dogs” value in data set [2] (dogs receiving IVa clinical capsule, high fat meal) came to 9 fold. Moreover, in data set [2] (setting [21]), the “AUCtot Fed/Fasting Ratio” value turned out to be 9.0 ± 2.2. The “Cmax Fed/Fasting Ratio” value in data set [2] (setting [21]) is given as 9.1 ± 0.92. Moreover, the “% IVa Formed (of starting concentration of Iab)” value worked out at 0.55% in data set [3] (0 min); 0.59% in data set [3] (15 min); 0.50% in data set [3] (30 min); 0.65% in data set [3] (45 min); 0.75% in data set [3] (60 min). The “Iab / IVa Formed” value is 0.061 µM in data set [3] (0 min); 0.067 µM in data set [3] (15 min); 0.057 µM in data set [3] (30 min); 0.073 µM in data set [3] (45 min); 0.084 µM in data set [3] (60 min); 0.25 µM in data set [4] (37°C, 0 min). In addition, the “Iab / IVa Formed” value was 1.1 µM in data set [4] (15 min); 1.8 µM in data set [4] (30 min); 2.8 µM in data set [4] (45 min); 3.7 µM in data set [4] (60 min); 5.4 µM in data set [4] (90 min).

Regarding `O=C(C(=O)N1CCN(C(=O)c2ccccc2)CC1)c1c[nH]c2c(-n3ccnn3)ncc(F)c12` [IVb], the Cmax is 9500 ± 2800 nM in data set [1] (in vivo, 5 mg/kg, historic, after PO dosing of parent 5 mpk) and 3900 ± 800 nM in data set [1] (setting [9]). Also, in data set [1] (setting [6]), the Vd amounted to 0.49 ± 0.26 L/kg. The half-life in data set [1] (setting [12]) was 1.5 ± 0.2 h; in data set [1] (setting [13]), 5.9 ± 4.9 h; in data set [1] (setting [14]), 2.4 ± 0.5 h; in data set [1] (setting [15]), 3.7 ± 0.9 h. The values for the concentration at 24 h in data set [1] (setting [7]) and in data set [1] (setting [8]) were 7.5 nM and 161 nM, respectively. Besides, the AUC(0-t) stood at 13.7 ± 2.6 µM·h in data set [1] (setting [9]) and 86 ± 33 µM·h in data set [1] (setting [10]). The Tmax in data set [1] (setting [11]) came out at 1.1 h; in data set [1] (setting [10]), 4.6 h.

Take `COc1cnc(-n2cnc(C)n2)c2c1c(C(=O)C(=O)N1CCN(C(=O)c3ccccc3)CC1)cn2COP(=O)(O)O` [Icb, [3-[(4-benzoylpiperazin-1-yl)(oxo)acetyl]-4-methoxy-7-(3-methyl-1H-1,2,4-triazol-1-yl)-1H-pyrrolo[2,3-c]pyridin-1-yl]methyl dihydrogen phosphate, 2-amino-2-(hydroxymethyl)propane-1,3-diol salt (1:1)]: the half-life at 10 μM stood at 250 min in data set [5] (pH 7.5, ALP Activity 10 Units/L); 29 min in data set [5] (pH 7.5, ALP Activity 100 Units/L); 2.4 min in data set [5] (pH 7.5, ALP Activity 1000 Units/L). For the same compound, the “hydrolysis in the presence of hepatocytes” value with human hepatocytes is listed as “hydrolyzed”.

Values taken from patent US20150315218A1, “SALTS OF PRODRUGS OF PIPERAZINE AND SUBSTITUTED PIPERIDINE ANTIVIRAL AGENTS” (Bristol-Myers Squibb Company, priority 2004, published 2015).
